We go through 59 compounds from US20250214977A1, “STAT6 INHIBITORS AND USES THEREOF” (Kymera Therapeutics, Inc., priority 2024, published 2025).

This assay has as its system Phosphorylation of STAT6 in human PBMC (CD19+ B cells). As to the kind of experiment: Phosphorylated STAT6 (pSTAT6) flow cytometry assay in human PBMC, IL-4 stimulated. It is filed as cell-based. The note with it: compound 1 hour, 1 ng/ml IL-4 for 15 minutes, read-out: STAT6 IL4 pSTAT6 assay in PBMC: Average IC50. On the procedure: Example 2. Phosphorylated STAT6 (pSTAT6) Flow Cytometry Assay in Human PBMC
Phosphorylation of STAT6 in human PBMC was quantitatively measured using flow cytometry technology. Human PBMC were seeded in 96-well plates with a density of 0.3 to 0.5 million cells per well in 100 μl fresh media. Compounds were then added to the assay plates with a final top concentration of up to 30 μM in a 1:3 dilution series with total of 9 doses. The assay plates were incubated for 1 hour at 37° C. under 5% CO2. The cells were then stimulated with 1 ng/ml of IL-4 (R&D Systems, Cat #6507-IL) for 15 minutes, followed by fixation for 30 minutes at 4° C. Cells were spun down at 350 g for 5 minutes. The supernatant was removed and cells were washed once with FACS buffer. Cells were permeabilized with 90% MeOH/H2O for 30 minutes at 4° C., followed by one wash with FACS buffer. Non-specific binding were blocked with human Fc for 1 hour at 4 C, followed by one wash with FACS buffer. AF488 conjugated pSTAT6 antibody (BD Biosciences, Cat #612600, 1:100 dilution) and PE conjugated CD19 antibody (BD Biosciences, Cat #341103, 1:50 dilution) diluted in 100 μl FACS buffer was added to each well with overnight incubation at 4° C. Cells were then washed once with FACS buffer and resuspended in 200 μl of FACS buffer for flow cytometry to quantify pSTAT6 in CD19+ B cells. The data was analyzed by GraphPad Prism and the dose dependent pSTAT6 inhibition was fit using the four-parameter inhibitor vs. response nonlinear regression.
(Flow cytometry measures light scatter and fluorescence of single cells or particles in a stream.)

Broadly, the IC50 is the point on the concentration scale where inhibition reaches its midpoint. With `CN(C)C(=O)c1cc2cc([C@@H]3CN(C(=O)CCn4ccnn4)CC[C@H]3O)ccc2o1` (single isomer, unassigned) [Example I-209], the IC50 was over 100 µM.
In the case of `COC(=O)c1ccc(OCC(=O)N2CCC=C(c3ccc4cc(C(=O)N(C)C)[nH]c4c3)C2)cc1` [Example I-142] it was over 100 µM; in that of `C[C@H]1CCCCN1C(=O)c1cc2ccc(C3=CCCN(C(=O)CCn4ccnn4)C3)cc2[nH]1` (single isomer, unassigned) [Example I-129], over 100 µM; in that of `Cc1nc(CC(=O)N2CCC=C(c3ccc4cc(C(=O)N(C)C)[nH]c4c3)C2)no1` [Example I-41], 10 to 100 µM.
For the compound `CN(C)C(=O)c1cc2cc(C3=CCCN(C(=O)CCc4ccncc4)C3)ccc2o1` [Example I-313], the IC50 was over 100 µM.
Turning to `CN(C)C(=O)c1cc2ccc(C3=CCCN(C(=O)c4ccc(-c5ccc(Cl)cc5)cc4)C3)cc2[nH]1` [Example I-83], the IC50 lay within 10 to 100 µM.
In the case of `CN(C)C(=O)c1cc2ccc(C3=CCCN(C(=O)Cc4cccnc4O)C3)cc2[nH]1` [Example I-257] it was over 100 µM; in that of `CN(C)C(=O)c1cc2ccc(C3=CCCN(C(=O)[C@@H]4C[C@H]4c4ccc(Br)cc4)C3)cc2[nH]1` [Example I-56], 10 to 100 µM.
The value for `CN(C)C(=O)c1cc2ccc(C3=CCCN(C(=O)c4cccnc4SCc4ccccc4)C3)cc2[nH]1` [Example I-95] was over 100 µM.
In the case of `CN(C)C(=O)c1cc2cc(C3=CCCN(C(=O)CCc4cn5cccnc5n4)C3)ccc2o1` [Example I-281], the IC50 is over 100 µM.
On to `CN(C)C(=O)c1nc2cc(C3=CCCN(C(=O)CCn4ccnn4)C3)ccc2[nH]1` [Example I-234], for which the IC50 was over 100 µM.
In the case of `O=C(CCn1ccnn1)N1CCC=C(c2ccc3cc(C(=O)N4CCCC4)[nH]c3c2)C1` [Example I-124], the IC50 was over 100 µM.
The value for `COC(=O)C1CCC(c2ccc3oc(C(=O)N(C)C)cc3c2)CN1C(=O)CCn1ccnn1` (mixture of isomers) [Example I-2] was over 100 µM; that for `CN(C)C(=O)c1cc2cc(C3=CCCN(C(=O)Cn4ncc5ccccc54)C3)ccc2o1` [Example I-284] was over 100 µM.
In the case of `NC(=O)c1cc2cc(C3=CCCN(C(=O)CCn4ccnn4)C3)ccc2o1` [Example I-213] it was over 100 µM.
With `CNc1ccc(-c2cc(C3=CCCN(C(=O)CCn4ccnn4)C3)cc3[nH]c(C(=O)N(C)C)cc23)c(Cl)c1` [Example I-118], the IC50 is under 0.1 µM.
Take `CN(C)C(=O)c1cc2ccc(C3=CCCN(C(=O)CNC(=O)c4cccc(C(F)(F)F)c4)C3)cc2[nH]1` [Example I-101]: the IC50 is over 100 µM.
On to `CN(C)C(=O)c1cc2cc(C3=CCCN(C(=O)Cn4nnc5ccccc54)C3)ccc2o1` [Example I-254], for which the IC50 is over 100 µM.
Regarding `CN(C)C(=O)c1cc2ccc(C3=CCCN(C(=O)c4cn(C5CC5)nn4)C3)cc2[nH]1` [Example I-45], the IC50 lay in the range of 10 to 100 µM.
`CN(C)C(=O)c1cc2ccc(C3=CCCN(C(=O)C4Cc5ccccc5CN4C=O)C3)cc2[nH]1` (centres unmarked) [Example I-202]: the IC50 was 0.1 to 1 µM.
The value for `CN(C)C(=O)c1cc2ccc(C3=CCCN(C(=O)C4CC4F)C3)cc2[nH]1` (centres unmarked) [Example I-25] was over 100 µM; that for `CN(C)C(=O)c1cc2cc(C3=CCCN(C(=O)CC4CCOCC4)C3)ccc2o1` [Example I-255] was over 100 µM.
With `CN(C)C(=O)c1cc2ccc(C3=CCCN(C(=O)C4NCCc5ccccc54)C3)cc2[nH]1` (centres unmarked) [Example I-60], the IC50 was over 100 µM.
In the case of `CCCN(C)C(=O)c1cc2cc(C3=CCCN(C(=O)CCn4ccnn4)C3)ccc2o1` [Example I-235] it was over 100 µM; in that of `CN(C)C(=O)c1cc2ccc(C3=CCCN(C(=O)C4(O)CC4)C3)cc2[nH]1` [Example I-27], over 100 µM.
The value for `CN(C)C(=O)c1cc2ccc(C3=CCCN(C(=O)CN(C)S(=O)(=O)c4ccccc4)C3)cc2[nH]1` [Example I-75] was 10 to 100 µM; that for `CN(C)C(=O)c1cc2cc(C3=CCCN(C(=O)CCc4ccc5ccccc5c4)C3)ccc2o1` [Example I-266] was over 100 µM.
As to `CN(C)C(=O)c1cc2cc(C3=CCCN(C(=O)Cc4cccc5ccccc45)C3)ccc2o1` [Example I-294], the IC50 was over 100 µM.
Regarding `CC(=O)N1CCC(c2cccc3c2CC(C(=O)N2CCC=C(c4ccc5oc(C(=O)N(C)C)cc5c4)C2)N(C=O)C3)CC1` (centres unmarked) [Example I-180], the IC50 was over 100 µM.
Turning to `CN(C)C(=O)c1cc2ccc(C3=CCCN(C(=O)c4cc5occc5n4-c4ccccc4)C3)cc2[nH]1` [Example I-102], the IC50 was 10 to 100 µM.
With `CN(C)C(=O)c1cc2ccc(C3=CCCN(C(=O)C(CO)c4ccccc4)C3)cc2[nH]1` (centres unmarked) [Example I-159], the IC50 was over 100 µM.
In the case of `CN(C)C(=O)c1cc2ccc(C3=CCCN(C(=O)C4CC4F)C3)cc2[nH]1` (centres unmarked) [Example I-322] it was 10 to 100 µM.
Regarding `CN(C)C(=O)c1cc2ccc(C3=CCCN(C(=O)c4cnn(C)c4C(F)(F)F)C3)cc2[nH]1` [Example I-62], the IC50 lay in the range of 10 to 100 µM.
With `CCN[C@H](Cn1ccnn1)C(=O)N1CCC=C(c2ccc3oc(C(=O)N(C)C)cc3c2)C1` [Example I-169], the IC50 was over 100 µM.
On to `CC(=O)NC(Cn1ccnn1)C(=O)N1CCC=C(c2ccc3oc(C(=O)N(C)C)cc3c2)C1` (centres unmarked) [Example I-178], for which the IC50 is over 100 µM.
As to `CN(C)C(=O)c1cc2ccc(C3=CCCN(C(=O)c4n[nH]cc4I)C3)cc2[nH]1` [Example I-33], the IC50 lay within 10 to 100 µM.
In the case of `C[C@@H](O)C(=O)N1CCC=C(c2ccc3cc(C(=O)N(C)C)[nH]c3c2)C1` [Example I-24] it was 10 to 100 µM.
The value for `CN(C)C(=O)c1cc2cc(C3=CCCN(C(=O)C4Cc5c(cccc5-c5ccc(O)cc5)CN4C=O)C3)ccc2o1` (centres unmarked) [Example I-187] was over 100 µM.
The value for `CN(C)C(=O)c1cc2cc(C3=CCCN(C(=O)Cc4ccc5c(c4)OCCO5)C3)ccc2o1` [Example I-306] was over 100 µM.
On to `CN(C)C(=O)c1cc2cc([C@H]3CC[C@H](CO)N(C(=O)CCn4ccnn4)C3)ccc2o1` (single isomer, unassigned) [Example I-157], for which the IC50 was over 100 µM.
In the case of `CN(C)C(=O)c1cc2ccc(C3=CCCN(C(=O)CC(C)(C)NCc4ccccc4)C3)cc2[nH]1` [Example I-135] it was over 100 µM.
The value for `CN(C)C(=O)c1cn2cc(C3=CCCN(C(=O)CCn4ccnn4)C3)ccc2n1` [Example I-241] was over 100 µM; that for `CN(C)C(=O)c1cc2ccc(C3=CCCN(C(=O)C(CC4CC4)N4Cc5ccccc5C4=O)C3)cc2[nH]1` (centres unmarked) [Example I-104] was over 100 µM.
As for `CN(C)C(=O)c1cc2cc(C3=CCCN(C(=O)CCc4ccnnc4)C3)ccc2o1` [Example I-225], the IC50 is over 100 µM.
As to `C[C@H](Cn1ccnn1)C(=O)N1CCC=C(c2ccc3oc(C(=O)N(C)C)cc3c2)C1` (single isomer, unassigned) [Example I-228], the IC50 is 10 to 100 µM.
Regarding `CN(C)C(=O)c1cc2cc(C3=CCCN(C(=O)CCc4ccccc4)C3)ccc2o1` [Example I-312], the IC50 was over 100 µM.
For `CN(C)C(=O)c1cc2cc(C3=CCCN(C(=O)CCc4nncs4)C3)ccc2o1` [Example I-147], the IC50 is over 100 µM.
In the case of `CN(C)C(=O)c1cc2cc(C3=CCCN(C(=O)C4Cc5c(cccc5-n5cccn5)CN4C=O)C3)ccc2o1` (centres unmarked) [Example I-172] it was over 100 µM; in that of `CN(C)C(=O)c1cc2cc(C3=CCCN(C(=O)CCc4ccccn4)C3)ccc2o1` [Example I-268], over 100 µM.
As for `CN(C)C(=O)c1cc2ccc(C3=CCCN(C(=O)[C@@H]4C[C@H]4c4ccn(C)n4)C3)cc2[nH]1` [Example I-11], the IC50 is 10 to 100 µM.
Regarding `CN(C)C(=O)c1cc2ccc(C3=CCCN(C(=O)C4CC(=O)N(Cc5ccccc5)C4)C3)cc2[nH]1` (centres unmarked) [Example I-88], the IC50 fell in the range of 10 to 100 µM.
The value for `CCC(=O)N1Cc2ccccc2CC1C(=O)N1CCC=C(c2ccc3oc(C(=O)N(C)C)cc3c2)C1` (centres unmarked) [Example I-188] was over 100 µM; that for `CN(C)C(=O)c1cc2c(F)c(C3=CCCN(C(=O)CCn4ccnn4)C3)ccc2o1` [Example I-323] was 0.1 to 1 µM.
Regarding `CN(C)C(=O)c1cc2cc(C3=CCCN(C(=O)Cc4ccc5ncccc5c4)C3)ccc2o1` [Example I-273], the IC50 is over 100 µM.
On to `CC1CCCN(C(=O)c2cc3ccc(C4=CCCN(C(=O)CCn5ccnn5)C4)cc3[nH]2)C1` (centres unmarked) [Example I-126], for which the IC50 is over 100 µM.
Turning to `COCc1oncc1C(=O)N1CCC=C(c2ccc3cc(C(=O)N(C)C)[nH]c3c2)C1` [Example I-145], the IC50 was over 100 µM.
For the compound `CN(C)C(=O)c1cc2ccc(C3=CCCN(C(=O)CCc4cccc(C#N)c4)C3)cc2[nH]1` [Example I-63], the IC50 was over 100 µM.
In the case of `COC(=O)C1CCC(c2ccc3oc(C(=O)N(C)C)cc3c2)CN1C(=O)CCn1ccnn1` (centres unmarked) [Example I-150], the IC50 was over 100 µM.
In the case of `CN(C)C(=O)c1cc2ccc(C3=CCCN(C(=O)c4ccc(O)c(F)c4)C3)cc2[nH]1` [Example I-48] it was 10 to 100 µM.
